Laboratory results: publication PMC2605521 (Journal of medicinal chemistry, 2008)
Entries after “also recorded” stand apart in the source; their conditions may differ. Read-outs that look alike come from different tables or passages of the source.

Assays:
[1] = cited from earlier work
μ-opioid receptor [2] = target: T1, μ-opioid receptor (Homo sapiens, UniProt P35372); assay: [125I]Ioxy binding, CHO cells expressing μ-opioid receptor; settings: for affinity for μ-receptors (in words): compared with the N-methyl analogues 46 and 47
T1 sequence (P35372 whole entry, species assumed): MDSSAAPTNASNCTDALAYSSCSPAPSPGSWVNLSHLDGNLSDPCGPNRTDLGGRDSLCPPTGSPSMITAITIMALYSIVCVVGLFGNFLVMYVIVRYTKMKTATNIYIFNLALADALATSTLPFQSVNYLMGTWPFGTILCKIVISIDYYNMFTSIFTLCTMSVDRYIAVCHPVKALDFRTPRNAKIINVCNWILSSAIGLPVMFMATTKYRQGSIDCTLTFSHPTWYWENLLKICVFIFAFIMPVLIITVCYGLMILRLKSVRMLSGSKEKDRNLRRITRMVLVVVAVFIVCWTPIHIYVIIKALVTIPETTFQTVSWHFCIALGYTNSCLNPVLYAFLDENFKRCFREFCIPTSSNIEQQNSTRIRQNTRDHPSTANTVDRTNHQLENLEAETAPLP

κ receptors = κ receptors (Homo sapiens, UniProt P41145); assay: [35S]GTP-γ-S functional assay, κ-antagonism; assay type: biochemical; settings: for κ-antagonist activity in the functional assay (in words): [35S]GTPγS assay
κ receptors, sequence (P41145 whole entry): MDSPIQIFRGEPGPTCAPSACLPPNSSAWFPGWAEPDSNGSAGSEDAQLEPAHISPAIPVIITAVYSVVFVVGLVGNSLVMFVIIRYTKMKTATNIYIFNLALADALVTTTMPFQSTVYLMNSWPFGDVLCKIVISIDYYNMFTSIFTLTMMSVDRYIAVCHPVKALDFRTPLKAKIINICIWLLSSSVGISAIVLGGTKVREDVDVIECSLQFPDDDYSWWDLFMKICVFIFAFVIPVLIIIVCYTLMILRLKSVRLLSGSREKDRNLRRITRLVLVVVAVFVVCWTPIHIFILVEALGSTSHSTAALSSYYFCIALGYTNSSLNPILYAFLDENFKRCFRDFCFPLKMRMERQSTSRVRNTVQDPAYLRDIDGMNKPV

δ receptors = δ receptors (Homo sapiens, UniProt P41143); assay: [35S]GTP-γ-S functional assay, δ-antagonism; assay type: biochemical
δ receptors, sequence (P41143 whole entry): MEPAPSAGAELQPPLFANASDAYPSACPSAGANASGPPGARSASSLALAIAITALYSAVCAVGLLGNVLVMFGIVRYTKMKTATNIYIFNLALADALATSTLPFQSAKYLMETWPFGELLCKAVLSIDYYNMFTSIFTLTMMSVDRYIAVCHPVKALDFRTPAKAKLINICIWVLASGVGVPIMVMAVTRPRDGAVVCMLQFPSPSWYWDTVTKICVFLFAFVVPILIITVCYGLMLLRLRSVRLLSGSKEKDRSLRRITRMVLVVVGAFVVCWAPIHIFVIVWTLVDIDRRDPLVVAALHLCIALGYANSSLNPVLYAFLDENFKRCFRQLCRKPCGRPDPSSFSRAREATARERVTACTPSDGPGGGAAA

μ-receptors [3] = target: T2, μ-receptors (Homo sapiens, UniProt P35372); assay: biochemical; assay type: biochemical
T2 sequence (P35372 whole entry, species assumed): as the sequence (P35372 whole entry, species assumed) above

μ-receptors [4] = target: T2, μ-receptors; settings: [35S]GTPγS assay; cited from earlier work
μ-opioid receptor [5] = target: T1, μ-opioid receptor; settings: read-out: Ki at μ-receptors; earlier work; cited from earlier work
δ-opioid receptor = δ-opioid receptor (Homo sapiens, UniProt P41143); assay: [125I]Ioxy binding, CHO cells expressing δ-opioid receptor
δ-opioid receptor, sequence (P41143 whole entry): as the sequence (P41143 whole entry) above

Oc1cccc2c1O[C@H]1[C@@H]3CCC[C@]21CCN3CCc1ccccc1 (single isomer, unassigned) [(−)-N-phenethyl para-e isomer]
antinociceptive activity (in words) [1]: morphine-like antinociceptive

CN1C[C@@H]2Oc3ccc(O)cc3[C@@]23CCC[C@@H]1C3 (racemic) [Compound 47, (3R*,6aS*,11aR*)-1,3,4,5,6,11a-Hexahydro-2-methyl-2H-3,6a-methanobenzofuro [2,3-c]azocin-8-ol]
Ki (μ-opioid receptor [2]): 2930 ± 203 nM

Oc1cccc2c1O[C@H]1CN(CCc3ccccc3)[C@@H]3CCC[C@]21C3 (racemic) [Compound 51, (3R*,6aS*,11aR*)-1,3,4,5,6,11a-Hexahydro-2-phenethyl-2H-3,6a-methanobenzofuro [2,3-c]azocin-10-ol]
affinity for μ-receptors (in words) (μ-opioid receptor [2]): only slight affinity

Oc1cccc2c1O[C@@H]1CC[C@H]3C[C@@]21CCN3CCc1ccccc1 (racemic) [Compound 24, (4R*,6aS*,11bR*)-2,3,4,5,6,6a-Hexahydro-3-phenethyl-1H-4,11b-methanobenzofuro[3,2-d]azocine-8-ol]
Kb (κ receptors): 21 ± 3.4 nM | κ-antagonist activity in the functional assay (in words) (κ receptors): moderately active κ-antagonists; also recorded: moderately potent κ-receptor antagonists | Kb (δ receptors): 8000 ± 1500 nM | Kb (μ-receptors [3]): 77 ± 13 nM | μ-antagonist activity in the functional assay (in words) (μ-receptors [3]): weak μ-antagonist activity

Oc1ccc2c(c1)[C@]13CCC[C@H](C1)N(CCc1ccccc1)C[C@@H]3O2 (relative stereo) [Compound 52]
affinity for μ-receptors (in words) (μ-opioid receptor [2]): only slight affinity

Oc1cccc2c1O[C@H]1[C@H]3CCC[C@@]21CCN3CCc1ccccc1 (single isomer, unassigned) [(−)-N-phenethyl ortho-f isomer]
potency as μ-opioid antagonist (in words) (μ-receptors [4]): more potent than naloxone | Ki (μ-opioid receptor [5]): 7 nM

Oc1ccc2c(c1)[C@@]13CCN(CCc4ccccc4)[C@@H](CC[C@H]1O2)C3 (racemic) [Compound 16, (4R*,6aS*,11bR*)-2,3,4,5,6,6a-Hexahydro-3-phenethyl-1H-4,11b-methanobenzofuro[3,2-d]azocine-10-ol]
Kb (κ receptors): 19 ± 5.2 nM | κ-antagonist activity in the functional assay (in words) (κ receptors): moderately active κ-antagonists; also recorded: moderately potent κ-receptor antagonists | Kb (δ receptors): 17000 ± 4200 nM | Kb (μ-receptors [3]): 260 ± 79 nM

CN1CC[C@@]23C[C@@H]1CC[C@H]2Oc1c(O)cccc13 (racemic) [Compound 20, (4R*,6aS*,11bR*)-2,3,4,5,6,6a-Hexahydro-3-methyl-1H-4,11b-methanobenzofuro[3,2-d]azocine-8-ol]
Ki (δ-opioid receptor): > 10000 nM

CN1C[C@@H]2Oc3c(O)cccc3[C@@]23CCC[C@@H]1C3 (racemic) [Compound 46, (3R*,6aS*,11aR*)-1,3,4,5,6,11a-Hexahydro-2-methyl-2H-3,6a-methanobenzofuro[2,3-c]azocin-10-ol]
Ki (μ-opioid receptor [2]): 8000 ± 406 nM
